Patent US7750013B2, “N-oxides as prodrugs of piperazine and piperidine derivatives” (Solvay Pharmaceuticals, B.V., priority 2005, dated 2010)

What was measured:
[1] = tested on: 6-OH-dopamine induced turning behavior in rats; assay: 6-OH-dopamine induced turning behavior in rats; assay type: in vivo; settings: Rattus norvegicus, po, read-out: Antagonism of 6-OH dopamine induced turning behavior after oral dosing: ED50
Procedure: 6-OH-dopamine induced turning behavior in rats (Ungerstedt U, 6-OH-DA induced degeneration of central monoamine neurons, Eur. J. Pharmacol. 1968 5: 107-110). Specifically:
Male rats (Wistar, Harlan, Netherlands; 400-500 g at time of experiment) are housed in a temperature (20-21±2° C.) and humidity controlled environment and receive water ad libitum except during experimental sessions. Food is restricted to approximately 15 g per rat per day. A 12-hour light-dark cycle (lights on 07.00-19.00 hour) is used. All experimental procedures are conducted in accordance with Dutch law and conform to local animal care and use committee stipulations.
Unilateral 6-hydroxydopamine (6-OHDA) lesions of the substantia nigra zona compacta are performed using a stereotaxic procedure. […] Good turning rats are defined as those which elicited at least 20 contralateral turns following amphetamine (2.5 mg/kg sc) in the 5 min time epoch beginning 25 min after administration and a mean of at least 20 contralateral turns recorded over a 30 min period after administration of apomorphine (0.25 mg/kg s.c.). […]
Following statistical randomization of the treatment groups rats are pretreated with compounds of the invention (0.1-3 mg/kg p.o.) or vehicle (2 ml/kg) and placed in the rotameters the contralateral rotational behaviour is then measured. […]

[2] = biological target: κ-opiate (Rattus norvegicus, UniProt P34975); assay: In vitro receptor affinity, κ-opiate; assay type: binding
Procedure: (§1) The binding data collected in the table below (Example 5: pharmacological test results) were either obtained by CEREP (128, rue Danton, 92500 Rueil-Malmaison, France) or at Solvay Pharmaceuticals B.V. (C. J. van Houtenlaan 36, 1381 CP Weesp, The Netherlands), using well documented standard procedures. The affinities for dopamine-D2 and 5-HT1A receptors for instance, was measured as described by Creese I, Schneider R and Snyder S H, [^3H]-Spiroperidol labels dopamine receptors in rat pituitary and brain, Eur J Pharmacol […], 46: 377-381 and Gozlan H, El Mestikawy S, Pichat L, Glowinsky J and Hamon M, 1983, Identification of presynaptic serotonin autoreceptors using a new ligand ^3H-PAT, Nature 1983, 305: 140-142.

[3] = biological target: Dopamine-D2 (Homo sapiens, UniProt P14416); assay: In vitro receptor affinity, Dopamine-D2; assay type: binding
Procedure: as §1

[4] = biological target: 5-HT2A (Homo sapiens, UniProt P28223); assay: In vitro receptor affinity, 5-HT2A; assay type: binding
Procedure: as §1

[5] = biological target: Dopamine-D2S (Homo sapiens, UniProt P14416); assay: In vitro receptor affinity, Dopamine-D2S; assay type: binding
Procedure: as §1

[6] = biological target: α1-adrenergic; assay: In vitro receptor affinity, α1-adrenergic; assay type: binding; settings: rat; radioligand [3H]-prazosin
Procedure: as §1

[7] = biological target: Dopamine-D5 (Homo sapiens, UniProt P21918); assay: In vitro receptor affinity, Dopamine-D5; assay type: binding
Procedure: as §1

[8] = biological target: 5-HT2C (Homo sapiens, UniProt P28335); assay: In vitro receptor affinity, 5-HT2C; assay type: binding
Procedure: as §1

[9] = biological target: T1, Human dopamine-D3 receptor (Homo sapiens, UniProt P35462); assay: In vitro functional receptor activity; assay type: cell-based
T1 construct: expressed in transfected cells

[10] = biological target: 5-HT1A (Homo sapiens, UniProt P08908); assay: In vitro receptor affinity, 5-HT1A; assay type: binding
Procedure: as §1

[11] = biological target: Dopamine-D1 (Homo sapiens, UniProt P21728); assay: In vitro receptor affinity, Dopamine-D1; assay type: binding
Procedure: as §1

[12] = biological target: Dopamine-D4 (Homo sapiens, UniProt P21917); assay: In vitro receptor affinity, Dopamine-D4; assay type: binding
Procedure: as §1

[13] = biological target: α2-adrenergic; assay: In vitro receptor affinity, α2-adrenergic; assay type: binding; settings: rat; radioligand [3H]-RX 821002
Procedure: as §1

[14] = biological target: β2-adrenergic (Homo sapiens, UniProt P07550); assay: In vitro receptor affinity, β2-adrenergic; assay type: binding
Procedure: as §1

[15] = tested on: Dopamine-D2 receptor; assay: Apomorphine-induced climbing behaviour in mice; assay type: in vivo
Procedure: In Vivo Animal Model for Dopamine-D2 Receptor (Ant)Agonistic Activity
Apomorphine-induced climbing behaviour in mice (Costall B, Naylor R J and Nohria V, Differential actions of typical and atypical agents on two behavioural effects of apomorphine in the mouse, Brit J Pharmacol 1978, 63: 381-382).
For oral (p.o.) administration: to the desired quantity (0.5-5 mg) of the solid test compound in a glass tube, some glass beads were added and the solid was milled by vortexing for 2 minutes. After addition of 1 ml of a solution of 1% methylcellulose in water and 2% (v/v) of Poloxamer 188 (Lutrol F68), the compound was suspended by vortexing for 10 minutes. The pH was adjusted to 7. Remaining particles in the suspension were further suspended by using an ultrasonic bath.
For intravenous (i.v.) administration: compounds were dissolved in physiological saline (0.9% NaCl) and the pH was adjusted to 7.

T1 sequence (P35462 whole entry): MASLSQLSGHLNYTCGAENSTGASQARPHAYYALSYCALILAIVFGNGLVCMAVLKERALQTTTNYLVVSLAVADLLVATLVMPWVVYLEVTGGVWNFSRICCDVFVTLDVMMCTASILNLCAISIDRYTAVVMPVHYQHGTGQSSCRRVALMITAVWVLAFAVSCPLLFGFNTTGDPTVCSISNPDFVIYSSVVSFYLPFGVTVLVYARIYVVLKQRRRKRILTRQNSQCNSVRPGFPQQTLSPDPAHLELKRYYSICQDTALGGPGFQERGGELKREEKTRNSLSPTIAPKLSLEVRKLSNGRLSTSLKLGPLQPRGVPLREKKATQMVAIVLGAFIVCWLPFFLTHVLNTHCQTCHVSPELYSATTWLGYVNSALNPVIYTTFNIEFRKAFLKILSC
Chain of Dopamine-D4 (P21917 whole entry): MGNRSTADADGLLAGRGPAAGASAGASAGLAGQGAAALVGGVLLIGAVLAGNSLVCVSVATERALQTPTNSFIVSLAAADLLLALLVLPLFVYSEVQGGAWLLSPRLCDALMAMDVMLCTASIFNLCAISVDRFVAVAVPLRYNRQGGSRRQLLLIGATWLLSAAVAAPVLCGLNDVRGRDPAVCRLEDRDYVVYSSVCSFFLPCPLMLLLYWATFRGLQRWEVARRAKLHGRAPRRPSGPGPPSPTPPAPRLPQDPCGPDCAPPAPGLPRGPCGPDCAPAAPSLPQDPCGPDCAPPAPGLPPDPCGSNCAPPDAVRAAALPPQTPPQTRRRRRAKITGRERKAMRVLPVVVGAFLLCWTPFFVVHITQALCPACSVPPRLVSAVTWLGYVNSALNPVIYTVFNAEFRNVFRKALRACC
Chain of Dopamine-D2 (P14416 whole entry): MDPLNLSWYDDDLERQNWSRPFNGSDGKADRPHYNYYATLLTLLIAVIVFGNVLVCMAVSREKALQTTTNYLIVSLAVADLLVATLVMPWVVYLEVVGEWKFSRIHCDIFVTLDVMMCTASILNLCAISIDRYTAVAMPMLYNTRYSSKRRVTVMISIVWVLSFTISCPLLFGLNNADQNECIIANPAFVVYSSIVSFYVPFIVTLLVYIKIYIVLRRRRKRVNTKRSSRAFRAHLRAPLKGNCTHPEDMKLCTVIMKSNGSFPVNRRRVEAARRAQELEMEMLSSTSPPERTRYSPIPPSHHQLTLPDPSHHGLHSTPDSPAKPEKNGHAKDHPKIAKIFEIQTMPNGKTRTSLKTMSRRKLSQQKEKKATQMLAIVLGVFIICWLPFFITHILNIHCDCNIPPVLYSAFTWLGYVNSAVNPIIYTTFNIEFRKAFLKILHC
Chain of Dopamine-D2S (P14416 1-414 isoform P14416-2): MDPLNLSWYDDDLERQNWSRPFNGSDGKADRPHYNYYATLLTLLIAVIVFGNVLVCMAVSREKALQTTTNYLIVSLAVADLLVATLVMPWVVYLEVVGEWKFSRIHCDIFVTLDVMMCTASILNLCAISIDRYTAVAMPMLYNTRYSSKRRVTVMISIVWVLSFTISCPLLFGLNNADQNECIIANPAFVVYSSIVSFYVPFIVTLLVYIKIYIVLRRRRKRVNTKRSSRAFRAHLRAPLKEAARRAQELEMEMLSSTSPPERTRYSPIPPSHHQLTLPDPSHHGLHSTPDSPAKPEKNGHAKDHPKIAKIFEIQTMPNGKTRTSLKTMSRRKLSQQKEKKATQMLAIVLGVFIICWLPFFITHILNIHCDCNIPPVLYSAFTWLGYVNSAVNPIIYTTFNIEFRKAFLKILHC
Chain of Dopamine-D1 (P21728 whole entry): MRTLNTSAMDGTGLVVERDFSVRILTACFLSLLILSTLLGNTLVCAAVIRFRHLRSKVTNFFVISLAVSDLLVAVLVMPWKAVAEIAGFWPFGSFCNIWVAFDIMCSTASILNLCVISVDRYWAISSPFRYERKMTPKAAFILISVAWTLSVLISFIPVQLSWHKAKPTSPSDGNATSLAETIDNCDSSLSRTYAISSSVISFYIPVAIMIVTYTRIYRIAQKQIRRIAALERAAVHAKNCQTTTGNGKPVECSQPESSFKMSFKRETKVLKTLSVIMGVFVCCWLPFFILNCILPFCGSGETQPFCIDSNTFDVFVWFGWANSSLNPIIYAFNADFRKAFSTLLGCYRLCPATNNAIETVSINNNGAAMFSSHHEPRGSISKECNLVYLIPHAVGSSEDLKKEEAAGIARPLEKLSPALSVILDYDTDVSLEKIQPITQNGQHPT
Chain of 5-HT1A (P08908 whole entry): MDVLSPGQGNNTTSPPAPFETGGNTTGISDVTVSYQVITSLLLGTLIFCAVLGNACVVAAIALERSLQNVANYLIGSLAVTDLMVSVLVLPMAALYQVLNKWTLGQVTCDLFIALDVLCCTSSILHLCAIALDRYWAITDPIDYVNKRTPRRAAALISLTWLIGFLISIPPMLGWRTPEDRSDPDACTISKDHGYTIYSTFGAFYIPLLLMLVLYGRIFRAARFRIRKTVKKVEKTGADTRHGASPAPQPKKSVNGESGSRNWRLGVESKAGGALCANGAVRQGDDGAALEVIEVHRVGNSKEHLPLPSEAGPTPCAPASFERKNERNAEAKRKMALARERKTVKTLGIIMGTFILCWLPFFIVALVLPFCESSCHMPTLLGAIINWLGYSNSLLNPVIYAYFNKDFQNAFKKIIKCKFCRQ
Chain of κ-opiate (P34975 whole entry): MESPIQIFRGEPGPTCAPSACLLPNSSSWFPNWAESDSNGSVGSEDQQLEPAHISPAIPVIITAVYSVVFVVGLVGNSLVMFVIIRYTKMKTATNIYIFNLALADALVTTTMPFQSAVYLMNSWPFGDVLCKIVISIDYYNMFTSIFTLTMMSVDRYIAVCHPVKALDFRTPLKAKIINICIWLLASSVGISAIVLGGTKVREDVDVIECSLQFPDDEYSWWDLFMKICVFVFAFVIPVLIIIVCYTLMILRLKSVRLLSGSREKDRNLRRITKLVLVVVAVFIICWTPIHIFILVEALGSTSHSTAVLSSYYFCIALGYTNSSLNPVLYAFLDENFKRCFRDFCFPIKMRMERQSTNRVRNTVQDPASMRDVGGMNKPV
Chain of β2-adrenergic (P07550 whole entry): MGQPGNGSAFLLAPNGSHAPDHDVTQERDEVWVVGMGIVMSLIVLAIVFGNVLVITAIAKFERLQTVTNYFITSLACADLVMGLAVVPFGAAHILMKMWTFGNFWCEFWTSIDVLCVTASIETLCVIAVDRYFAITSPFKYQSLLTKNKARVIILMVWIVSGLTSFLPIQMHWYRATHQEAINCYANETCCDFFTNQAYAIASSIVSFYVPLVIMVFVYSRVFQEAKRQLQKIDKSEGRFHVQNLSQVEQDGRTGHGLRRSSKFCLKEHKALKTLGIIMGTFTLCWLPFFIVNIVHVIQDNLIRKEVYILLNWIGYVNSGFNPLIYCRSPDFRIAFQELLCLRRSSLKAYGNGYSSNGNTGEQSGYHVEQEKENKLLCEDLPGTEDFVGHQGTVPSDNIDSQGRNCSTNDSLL
Chain of 5-HT2A (P28223 whole entry): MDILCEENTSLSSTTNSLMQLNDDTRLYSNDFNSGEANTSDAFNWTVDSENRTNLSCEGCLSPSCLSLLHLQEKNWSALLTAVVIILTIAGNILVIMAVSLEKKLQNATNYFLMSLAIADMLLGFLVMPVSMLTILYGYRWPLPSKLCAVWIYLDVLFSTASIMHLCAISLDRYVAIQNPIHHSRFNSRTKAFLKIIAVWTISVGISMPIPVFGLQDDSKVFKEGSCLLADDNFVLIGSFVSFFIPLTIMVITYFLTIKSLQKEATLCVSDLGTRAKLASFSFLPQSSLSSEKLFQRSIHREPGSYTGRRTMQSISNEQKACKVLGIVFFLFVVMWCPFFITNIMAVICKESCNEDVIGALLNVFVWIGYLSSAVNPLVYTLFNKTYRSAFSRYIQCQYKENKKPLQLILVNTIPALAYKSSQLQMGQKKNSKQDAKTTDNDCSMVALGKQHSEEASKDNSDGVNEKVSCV
Chain of Dopamine-D5 (P21918 whole entry): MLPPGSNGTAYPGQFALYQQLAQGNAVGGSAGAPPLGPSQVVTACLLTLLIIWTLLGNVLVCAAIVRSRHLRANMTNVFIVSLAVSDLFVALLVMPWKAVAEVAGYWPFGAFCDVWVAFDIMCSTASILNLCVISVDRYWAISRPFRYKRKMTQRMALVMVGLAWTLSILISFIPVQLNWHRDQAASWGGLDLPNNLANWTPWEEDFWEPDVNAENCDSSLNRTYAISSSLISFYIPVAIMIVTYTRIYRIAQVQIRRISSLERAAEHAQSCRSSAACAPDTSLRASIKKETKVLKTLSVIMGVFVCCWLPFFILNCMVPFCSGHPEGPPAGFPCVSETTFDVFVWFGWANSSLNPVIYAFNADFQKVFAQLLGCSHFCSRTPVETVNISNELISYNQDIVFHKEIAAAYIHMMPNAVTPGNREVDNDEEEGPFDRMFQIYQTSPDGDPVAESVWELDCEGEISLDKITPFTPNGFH
Chain of 5-HT2C (P28335 33-458): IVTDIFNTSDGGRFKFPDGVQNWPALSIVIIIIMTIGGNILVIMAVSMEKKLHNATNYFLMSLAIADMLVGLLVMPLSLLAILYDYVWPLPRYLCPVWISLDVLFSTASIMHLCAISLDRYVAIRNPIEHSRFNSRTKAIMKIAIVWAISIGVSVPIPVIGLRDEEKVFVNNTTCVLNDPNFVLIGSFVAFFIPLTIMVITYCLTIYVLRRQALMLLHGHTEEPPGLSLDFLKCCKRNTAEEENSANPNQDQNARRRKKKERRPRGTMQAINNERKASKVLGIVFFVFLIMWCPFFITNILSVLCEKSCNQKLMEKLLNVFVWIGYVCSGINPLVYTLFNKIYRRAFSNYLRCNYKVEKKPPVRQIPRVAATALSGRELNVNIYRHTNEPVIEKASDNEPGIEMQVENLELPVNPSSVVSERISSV

Work on `C[N+]1([O-])CCN(c2cccc3[nH]c(=O)oc23)CC1` [N-oxide of SLV308, N-Oxide of SLV308] yielded an ED50 [1] of under 1 mg/kg, a Ki [2] of over 1000 nM and a Ki [3] of over 1000 nM. The “Factor by which dopamine-D2 receptor affinities differ (N-oxide vs SLV308)” value ([3]; potency ratio) was at least 100, the Ki [4] was over 1000 nM and the Ki [5] was over 1000 nM. The Ki [6] was over 1000 nM, the Ki [7] was over 1000 nM and the Ki [8] was over 1000 nM. For the same molecule, the EC50 [9] was 50.1 nM, the “Human dopamine-D3 receptor intrinsic activity (α)” value [9] was 0.60 and the Kb [9] was over 10000 nM. The Ki [10] was 200 nM, the Ki [11] was over 1000 nM and the Ki [12] was 130 nM. The “Factor by which affinities for dopamine-D4 receptors differ (N-oxide vs SLV308)” value ([12]; potency ratio) was 10, the Ki [13] was 500 nM and the Ki [14] was over 1000 nM. The “In vivo activity compared with the parent compound (in words)” value ([15]; administered intravenously) was “approximately one tenth of the activity of the parent compound”, the “Antagonism of apomorphine induced climbing behavior after intravenous dosing: ED50” value ([15]; mice, i.v.) was 0.90 mg/kg and the “Antagonism of apomorphine induced climbing behavior after oral dosing: ED50” value ([15]; mice, oral) was 0.79 mg/kg. For the same molecule, the “In vivo activity compared with the parent compound (in words)” value ([15]; oral administration) was “equipotent with SLV308”.
